# ChEMBL document CHEMBL1201862, “PubChem BioAssay data set” (2004)
# Activity calls are given as the source filed them.
# Key:
# [1] = biological target: Intestinal-type alkaline phosphatase (Homo sapiens, UniProt P09923); experiment: Dose Response confirmation of uHTS hits from a small molecule inhibitors of human intestinal alkaline phosphatase via a luminescent assay. [Related pubchem assays (depositor defined):AID2544, AID2574]; assay type: functional
# Aminopeptidase N = biological target: T1, Aminopeptidase N (Plasmodium falciparum FcB1/Columbia, UniProt O96935); experiment: malaria alanyl aminopeptidase activity blockers – biochemical, fluorogenic H-Leu-NHMec substrate, 1536-well (AID 1445); set-up: species or system Plasmodium falciparum 3D7, 3D7
# T1 sequence (O96935 whole entry): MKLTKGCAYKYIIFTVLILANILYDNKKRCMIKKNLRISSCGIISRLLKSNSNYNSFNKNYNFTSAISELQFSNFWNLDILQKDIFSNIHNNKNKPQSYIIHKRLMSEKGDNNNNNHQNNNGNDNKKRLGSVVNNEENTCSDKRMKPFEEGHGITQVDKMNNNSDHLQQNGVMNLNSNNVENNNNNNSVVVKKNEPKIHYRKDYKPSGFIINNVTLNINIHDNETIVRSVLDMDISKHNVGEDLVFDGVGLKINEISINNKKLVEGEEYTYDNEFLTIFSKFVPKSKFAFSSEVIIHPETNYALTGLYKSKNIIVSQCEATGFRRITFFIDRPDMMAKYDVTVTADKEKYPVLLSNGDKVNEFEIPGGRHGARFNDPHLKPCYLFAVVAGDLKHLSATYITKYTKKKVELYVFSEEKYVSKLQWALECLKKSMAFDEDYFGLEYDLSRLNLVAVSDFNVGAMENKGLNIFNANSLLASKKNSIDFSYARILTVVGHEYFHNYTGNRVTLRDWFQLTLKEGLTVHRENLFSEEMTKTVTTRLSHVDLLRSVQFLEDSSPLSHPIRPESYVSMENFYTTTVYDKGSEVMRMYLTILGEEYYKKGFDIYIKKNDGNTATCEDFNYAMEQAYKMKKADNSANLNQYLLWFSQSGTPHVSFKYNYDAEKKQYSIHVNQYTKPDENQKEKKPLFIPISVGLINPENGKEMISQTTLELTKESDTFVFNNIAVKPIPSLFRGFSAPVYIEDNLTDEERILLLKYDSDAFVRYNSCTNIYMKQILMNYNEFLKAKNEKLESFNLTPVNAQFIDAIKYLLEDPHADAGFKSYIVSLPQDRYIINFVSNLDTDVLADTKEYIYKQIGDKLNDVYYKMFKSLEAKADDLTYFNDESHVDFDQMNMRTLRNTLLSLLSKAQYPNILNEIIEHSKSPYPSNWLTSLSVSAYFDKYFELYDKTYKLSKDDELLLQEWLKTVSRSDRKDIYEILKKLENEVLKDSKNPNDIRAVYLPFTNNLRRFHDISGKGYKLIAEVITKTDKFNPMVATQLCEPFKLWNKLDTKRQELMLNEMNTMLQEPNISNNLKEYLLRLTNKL
# [2] = biological target: T2, Short transient receptor potential channel 4 (Mus musculus, UniProt Q9QUQ5); experiment: calcium entry via TRPC4 opening agents – cell-based, HEK293 TRPC4/mu-opioid, Fluo-4 calcium, dose response (AID 434937); assay type: functional
# T2 sequence (Q9QUQ5 whole entry): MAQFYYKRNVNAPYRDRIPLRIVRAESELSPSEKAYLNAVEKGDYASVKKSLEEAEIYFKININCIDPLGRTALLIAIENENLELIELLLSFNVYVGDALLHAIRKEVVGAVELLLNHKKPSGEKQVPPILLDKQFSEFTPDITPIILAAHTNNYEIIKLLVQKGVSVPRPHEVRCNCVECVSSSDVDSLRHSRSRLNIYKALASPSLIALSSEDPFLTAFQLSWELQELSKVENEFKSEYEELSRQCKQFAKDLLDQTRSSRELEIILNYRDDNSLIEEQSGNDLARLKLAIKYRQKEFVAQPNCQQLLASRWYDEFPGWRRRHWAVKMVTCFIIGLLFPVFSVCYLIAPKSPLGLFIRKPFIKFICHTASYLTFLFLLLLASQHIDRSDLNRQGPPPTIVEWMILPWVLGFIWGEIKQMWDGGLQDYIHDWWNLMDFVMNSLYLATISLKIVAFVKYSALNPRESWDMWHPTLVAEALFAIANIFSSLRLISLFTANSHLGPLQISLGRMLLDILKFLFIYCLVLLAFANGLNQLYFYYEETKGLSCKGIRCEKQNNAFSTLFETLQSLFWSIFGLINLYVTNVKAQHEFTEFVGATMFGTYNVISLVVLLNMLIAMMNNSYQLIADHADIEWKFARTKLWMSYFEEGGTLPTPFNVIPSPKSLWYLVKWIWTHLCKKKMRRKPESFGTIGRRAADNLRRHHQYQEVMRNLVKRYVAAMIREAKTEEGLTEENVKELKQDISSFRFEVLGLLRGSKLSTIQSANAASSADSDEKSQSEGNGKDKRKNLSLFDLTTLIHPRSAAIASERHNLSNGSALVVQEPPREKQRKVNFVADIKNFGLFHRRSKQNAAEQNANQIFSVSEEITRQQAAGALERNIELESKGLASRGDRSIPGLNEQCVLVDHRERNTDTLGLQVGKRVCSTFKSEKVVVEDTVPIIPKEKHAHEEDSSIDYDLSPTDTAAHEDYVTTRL
# [3] = THP-1 cell cytotoxicity, dose response, cytotoxicity control for non-replicating M. tuberculosis project (AID 489025); assay type: functional
# [4] = viability inhibitors of stage V gametocytes – luminescence, dose response (AID 1117278); assay type: functional, cell-based;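 further: gametocytes exposed to compound for 24 hours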
# [5] = viability loss in human Jurkat cells – cell-based, luminescence, cytotoxicity control for P. falciparum gametocyte viability project, dose response (AID 1117277); assay type: functional;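 further: potency reflects loss of cellular ATP meaning fewer viable cells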
# HEK293 [6] = experiment: inhibition of NOD1-driven NF-kB reporter – cell-based, luminescence, uHTS, primary screen (AID 1578); assay type: functional; conditions: Homo sapiens
# HEK293 [7] = experiment: cells; assay type: functional, cell-based; conditions: Homo sapiens
# HEK293 [8] = experiment: cells; assay type: functional, cell-based; conditions: Homo sapiens; remark: listed apart in the source
# [9] = biological target: Nucleotide-binding oligomerization domain-containing protein 2 (Homo sapiens, UniProt Q9HC29); experiment: inhibition of NOD2-driven NF-kB reporter – cell-based, luminescence, uHTS, HEK293 (AID 1566); assay type: functional
# Sequence of Nucleotide-binding oligomerization domain-containing protein 2 (Q9HC29 whole entry, the tested form may be a part): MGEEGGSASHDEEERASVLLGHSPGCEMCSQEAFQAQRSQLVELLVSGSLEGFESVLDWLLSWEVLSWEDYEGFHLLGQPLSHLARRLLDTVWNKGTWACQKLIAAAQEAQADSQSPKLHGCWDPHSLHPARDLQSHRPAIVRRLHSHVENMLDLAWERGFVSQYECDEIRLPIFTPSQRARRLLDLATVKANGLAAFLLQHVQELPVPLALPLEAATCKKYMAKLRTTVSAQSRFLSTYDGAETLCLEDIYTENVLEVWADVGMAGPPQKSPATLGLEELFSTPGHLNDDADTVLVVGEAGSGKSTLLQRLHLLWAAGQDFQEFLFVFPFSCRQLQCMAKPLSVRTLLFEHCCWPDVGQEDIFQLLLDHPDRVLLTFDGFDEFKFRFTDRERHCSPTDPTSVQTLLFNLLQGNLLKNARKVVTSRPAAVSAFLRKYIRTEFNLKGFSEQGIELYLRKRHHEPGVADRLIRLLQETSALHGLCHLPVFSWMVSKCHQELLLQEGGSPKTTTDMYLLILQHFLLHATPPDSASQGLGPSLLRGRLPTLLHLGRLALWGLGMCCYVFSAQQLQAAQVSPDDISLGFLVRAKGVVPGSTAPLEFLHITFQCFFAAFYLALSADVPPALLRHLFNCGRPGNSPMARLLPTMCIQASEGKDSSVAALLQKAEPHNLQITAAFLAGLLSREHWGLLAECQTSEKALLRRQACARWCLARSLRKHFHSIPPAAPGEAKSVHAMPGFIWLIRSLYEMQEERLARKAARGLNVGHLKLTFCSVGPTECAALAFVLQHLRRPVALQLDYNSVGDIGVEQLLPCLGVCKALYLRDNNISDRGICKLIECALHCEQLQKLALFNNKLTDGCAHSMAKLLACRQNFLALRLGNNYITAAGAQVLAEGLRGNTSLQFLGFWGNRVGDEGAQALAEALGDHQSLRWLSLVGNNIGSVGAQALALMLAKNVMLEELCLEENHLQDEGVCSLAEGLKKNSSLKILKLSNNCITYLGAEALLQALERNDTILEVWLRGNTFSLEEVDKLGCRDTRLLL
# HEK293 [10] = experiment: NOD2 signaling inhibitors in MDP-stimulated cells, cell-based, uHTS, luminescence (AID 2001); assay type: functional; conditions: Homo sapiens
# HEK293 [11] = experiment: cells; assay type: functional, cell-based; conditions: Homo sapiens; remark: listed apart in the source
# Bcl-2-like protein 10 = biological target: T3, Bcl-2-like protein 10 (Homo sapiens, UniProt Q9HD36); experiment: Bcl-B/TR3 peptide binding disruption – biochemical, fluorescence polarization, FITC-TR3 peptide, selectivity assay for Bfl-1 inhibitor project, primary screen (AID 748);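 further: fluorescence polarization from a fluorescein-labelled TR3 peptide binding purified Bcl-B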
# T3 sequence (Q9HD36 whole entry): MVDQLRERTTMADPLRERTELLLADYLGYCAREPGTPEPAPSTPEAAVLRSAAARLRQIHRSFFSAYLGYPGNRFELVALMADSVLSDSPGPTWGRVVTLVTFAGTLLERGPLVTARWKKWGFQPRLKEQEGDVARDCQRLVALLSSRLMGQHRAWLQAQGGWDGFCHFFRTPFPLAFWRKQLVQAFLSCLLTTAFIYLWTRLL
# Cytochrome P450 2C9 = Cytochrome P450 2C9 (Homo sapiens, UniProt P11712)
# Sequence of Cytochrome P450 2C9 (P11712 whole entry): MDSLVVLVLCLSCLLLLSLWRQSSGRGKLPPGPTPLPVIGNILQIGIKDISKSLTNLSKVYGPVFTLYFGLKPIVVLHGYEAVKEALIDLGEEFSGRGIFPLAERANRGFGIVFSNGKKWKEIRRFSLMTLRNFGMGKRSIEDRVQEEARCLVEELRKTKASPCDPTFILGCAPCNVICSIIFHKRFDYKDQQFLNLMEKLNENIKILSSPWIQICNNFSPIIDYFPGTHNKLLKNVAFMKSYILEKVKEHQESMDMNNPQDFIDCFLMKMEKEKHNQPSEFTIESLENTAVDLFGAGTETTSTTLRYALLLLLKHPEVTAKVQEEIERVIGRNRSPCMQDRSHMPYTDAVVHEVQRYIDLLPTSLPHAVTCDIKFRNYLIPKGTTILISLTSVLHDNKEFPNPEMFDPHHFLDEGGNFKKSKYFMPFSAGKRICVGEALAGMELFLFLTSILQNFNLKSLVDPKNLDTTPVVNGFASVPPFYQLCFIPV
# [12] = biological target: T4, Mannose-6-phosphate isomerase (Homo sapiens, UniProt P34949); experiment: MPI inhibition at elevated mannose 6-phosphate – biochemical, fluorescence intensity, high mannose 6-phosphate, primary screen (AID 1220)
# T4 sequence (P34949 whole entry): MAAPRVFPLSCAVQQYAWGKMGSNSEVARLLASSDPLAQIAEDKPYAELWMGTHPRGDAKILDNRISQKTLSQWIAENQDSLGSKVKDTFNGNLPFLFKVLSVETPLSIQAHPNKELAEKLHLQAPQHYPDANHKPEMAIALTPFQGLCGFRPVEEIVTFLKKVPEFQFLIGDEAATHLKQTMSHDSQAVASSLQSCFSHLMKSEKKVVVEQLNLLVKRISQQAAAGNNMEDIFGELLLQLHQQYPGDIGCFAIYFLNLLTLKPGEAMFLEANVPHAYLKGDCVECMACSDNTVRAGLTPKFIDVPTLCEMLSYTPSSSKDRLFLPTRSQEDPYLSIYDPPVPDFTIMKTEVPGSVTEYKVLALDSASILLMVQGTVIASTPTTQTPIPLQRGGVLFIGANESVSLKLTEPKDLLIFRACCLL
# cells = assay type: functional
# [13] = biological target: T5, Apoptotic protease-activating factor 1 (Homo sapiens, UniProt O14727); assay type: functional
# T5 sequence (O14727 whole entry): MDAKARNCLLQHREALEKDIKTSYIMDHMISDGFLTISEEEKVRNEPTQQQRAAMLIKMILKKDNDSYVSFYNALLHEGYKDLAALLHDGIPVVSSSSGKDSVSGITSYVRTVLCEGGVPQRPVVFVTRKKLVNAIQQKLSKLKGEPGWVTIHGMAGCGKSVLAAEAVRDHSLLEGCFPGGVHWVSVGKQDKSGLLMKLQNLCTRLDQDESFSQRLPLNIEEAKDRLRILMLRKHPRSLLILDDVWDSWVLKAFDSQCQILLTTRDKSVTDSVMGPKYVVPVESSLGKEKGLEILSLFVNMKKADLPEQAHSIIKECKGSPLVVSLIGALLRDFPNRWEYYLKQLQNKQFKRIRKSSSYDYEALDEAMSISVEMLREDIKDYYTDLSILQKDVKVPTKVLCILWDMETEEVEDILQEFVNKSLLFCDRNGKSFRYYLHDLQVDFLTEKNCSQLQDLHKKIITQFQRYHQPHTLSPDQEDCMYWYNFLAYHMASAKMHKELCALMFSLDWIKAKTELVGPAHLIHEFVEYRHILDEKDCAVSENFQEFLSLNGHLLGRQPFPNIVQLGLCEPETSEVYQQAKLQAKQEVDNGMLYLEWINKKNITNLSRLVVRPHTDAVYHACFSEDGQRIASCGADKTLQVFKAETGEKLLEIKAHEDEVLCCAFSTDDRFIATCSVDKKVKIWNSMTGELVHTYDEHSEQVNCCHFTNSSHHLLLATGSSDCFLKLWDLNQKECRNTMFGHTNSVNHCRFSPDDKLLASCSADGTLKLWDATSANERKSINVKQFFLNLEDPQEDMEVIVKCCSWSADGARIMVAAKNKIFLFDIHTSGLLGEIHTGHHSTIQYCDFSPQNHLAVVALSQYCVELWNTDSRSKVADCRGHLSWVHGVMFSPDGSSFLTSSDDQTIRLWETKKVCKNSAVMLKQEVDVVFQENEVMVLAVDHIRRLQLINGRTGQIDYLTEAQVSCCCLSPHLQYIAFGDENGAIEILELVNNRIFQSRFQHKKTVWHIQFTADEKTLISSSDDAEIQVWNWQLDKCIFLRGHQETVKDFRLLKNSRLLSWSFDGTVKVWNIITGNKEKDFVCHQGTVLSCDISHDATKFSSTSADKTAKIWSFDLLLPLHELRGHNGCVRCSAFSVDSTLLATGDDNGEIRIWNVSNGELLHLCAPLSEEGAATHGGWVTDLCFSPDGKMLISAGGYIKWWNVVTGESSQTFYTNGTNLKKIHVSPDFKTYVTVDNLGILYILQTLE
# Sequence of Intestinal-type alkaline phosphatase (P09923 whole entry): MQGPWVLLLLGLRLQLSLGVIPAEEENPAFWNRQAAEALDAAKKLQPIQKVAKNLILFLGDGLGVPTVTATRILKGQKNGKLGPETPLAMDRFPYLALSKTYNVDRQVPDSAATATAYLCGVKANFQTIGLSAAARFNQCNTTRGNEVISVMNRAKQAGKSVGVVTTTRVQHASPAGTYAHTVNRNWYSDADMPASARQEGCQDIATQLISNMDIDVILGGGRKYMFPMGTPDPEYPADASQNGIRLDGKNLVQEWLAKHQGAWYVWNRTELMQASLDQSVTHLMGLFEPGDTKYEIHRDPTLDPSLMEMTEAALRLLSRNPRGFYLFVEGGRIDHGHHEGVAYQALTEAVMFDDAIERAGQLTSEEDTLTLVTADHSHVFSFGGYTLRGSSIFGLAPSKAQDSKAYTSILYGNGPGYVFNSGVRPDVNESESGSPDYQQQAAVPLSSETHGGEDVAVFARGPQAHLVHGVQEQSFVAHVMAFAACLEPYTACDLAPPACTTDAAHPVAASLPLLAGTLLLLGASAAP
smiles,measurement,setting,value
CCn1cnc2sc(C(=O)O)c(C)c2c1=O,IC50,[1],> 100 µM (inactive)
O=C(O)c1ccc(-c2ccc(/C=N/Nc3ccc([N+](=O)[O-])cc3)o2)cc1,IC50,Aminopeptidase N,43.1 µM (active)
same,EC50,[2],2.11 µM (active)
O=C(Cc1c(F)cccc1Cl)Nc1ncc([N+](=O)[O-])s1,CC50,[3],> 40 µM (active)
same,IC50,[4],> 109 µM (inactive)
same,IC50,[5],> 83.3 µM (inactive)
O=C(CNC(=O)c1ccncc1)N/N=C/c1cc(Br)ccc1O,IC50,Aminopeptidase N,24.5 µM (active)
COc1ccc(C)cc1NC(=O)CSc1ccc(-c2ccco2)nn1,EC50,HEK293 [6],> 20 µM (inactive)
same,IC50,HEK293 [7],> 20 µM (inactive)
same,IC50,HEK293 [8],> 20 µM (inactive)
same,EC50,[9],> 20 µM (inactive)
same,IC50,HEK293 [10],9.49 µM (inactive)
same,IC50,HEK293 [11],> 20 µM (inactive)
CC(NC(=O)CN(C)S(=O)(=O)c1c[nH]cn1)c1ccccc1 (configuration not stated),IC50,Aminopeptidase N,54.6 µM (active)
O=C(COC(=O)c1ccc(S(=O)(=O)NCc2ccco2)cc1)NCC1CCCCC1,IC50,Bcl-2-like protein 10,> 100 µM (inactive)
CCOC(=O)c1c(NC(=O)Cn2cc([N+](=O)[O-])cn2)sc2c1CCC2,IC50,[1],> 100 µM (inactive)
same,AC50,Cytochrome P450 2C9,3.55 µM (inconclusive)
O=C(CCN1CCOCC1)c1ccc(Br)cc1,IC50,[12],43 µM (active)
same,CC50,[3],> 40 µM (active)
same,IC50,cells,11.8 µM (active)
c1cc2c3c(cccc3c1)NC1(CCCCCC1)N2,IC50,Bcl-2-like protein 10,78.4 µM (inactive)
same,IC50,[13],6.58 µM (active)
